This note sets out measurements from patent US10660877B2 (BRISTOL-MYERS SQUIBB COMPANY, priority 2016, dated 2020).

One test addresses human TLR9 (Homo sapiens (Human), UniProt Q9NR96). Description: TLR9 inhibition reporter assay (HEK-Blue cells, SEAP reporter, ODN2006 stimulation).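 Also: compounds tested over 0.05 nM to 50 µM, 22 h incubation, inhibition taken as SEAP signal drop from agonist plus DMSO wells toward a known inhibitor control.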 For orientation: A reporter such as luciferase makes a cellular process visible.
A further test deals with human TLR7 (Homo sapiens (Human), UniProt Q9NYK1). Description: TLR7 inhibition reporter assay (HEK-Blue cells, SEAP reporter, gardiquimod stimulation). Format: cell-based.
Chain of human TLR7 (Q9NYK1 27-1049): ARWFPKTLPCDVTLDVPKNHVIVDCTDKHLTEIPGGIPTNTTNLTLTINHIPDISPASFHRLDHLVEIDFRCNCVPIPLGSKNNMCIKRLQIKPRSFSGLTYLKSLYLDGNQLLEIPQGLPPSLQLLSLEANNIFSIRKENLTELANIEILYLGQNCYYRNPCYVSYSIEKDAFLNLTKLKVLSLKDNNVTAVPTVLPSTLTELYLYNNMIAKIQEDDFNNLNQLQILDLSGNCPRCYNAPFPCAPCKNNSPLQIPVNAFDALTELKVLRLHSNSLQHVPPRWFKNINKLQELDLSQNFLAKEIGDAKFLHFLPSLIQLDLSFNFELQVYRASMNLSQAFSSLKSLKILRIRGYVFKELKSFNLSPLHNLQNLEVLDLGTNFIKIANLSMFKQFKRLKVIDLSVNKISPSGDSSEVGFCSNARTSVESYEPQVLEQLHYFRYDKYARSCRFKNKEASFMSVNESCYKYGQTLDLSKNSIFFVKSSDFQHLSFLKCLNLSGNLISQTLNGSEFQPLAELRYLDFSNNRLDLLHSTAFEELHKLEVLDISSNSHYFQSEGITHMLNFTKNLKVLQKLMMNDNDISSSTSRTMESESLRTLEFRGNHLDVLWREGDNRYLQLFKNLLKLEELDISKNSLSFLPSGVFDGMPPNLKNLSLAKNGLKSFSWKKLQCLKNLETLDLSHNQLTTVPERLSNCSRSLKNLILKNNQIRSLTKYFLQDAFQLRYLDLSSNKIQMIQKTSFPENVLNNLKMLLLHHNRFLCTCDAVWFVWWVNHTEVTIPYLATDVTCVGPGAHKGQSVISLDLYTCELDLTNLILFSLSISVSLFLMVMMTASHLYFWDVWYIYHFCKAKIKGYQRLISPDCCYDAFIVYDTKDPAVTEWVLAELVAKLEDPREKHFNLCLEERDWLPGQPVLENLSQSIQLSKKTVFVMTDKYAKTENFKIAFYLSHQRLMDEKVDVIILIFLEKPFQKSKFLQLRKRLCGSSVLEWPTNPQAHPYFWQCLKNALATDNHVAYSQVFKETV
The next test deals with human TLR8 (Homo sapiens (Human), UniProt Q9NR97). Description: TLR8 inhibition reporter assay (HEK-Blue cells, SEAP reporter, R848 stimulation).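 Also: compounds tested from 0.05 nM to 50 µM, 22 h at 37 °C, SEAP measured with HEK-Blue Detection, inhibition relative to agonist plus DMSO versus a known inhibitor.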
Chain of human TLR8 (Q9NR97 27-1041): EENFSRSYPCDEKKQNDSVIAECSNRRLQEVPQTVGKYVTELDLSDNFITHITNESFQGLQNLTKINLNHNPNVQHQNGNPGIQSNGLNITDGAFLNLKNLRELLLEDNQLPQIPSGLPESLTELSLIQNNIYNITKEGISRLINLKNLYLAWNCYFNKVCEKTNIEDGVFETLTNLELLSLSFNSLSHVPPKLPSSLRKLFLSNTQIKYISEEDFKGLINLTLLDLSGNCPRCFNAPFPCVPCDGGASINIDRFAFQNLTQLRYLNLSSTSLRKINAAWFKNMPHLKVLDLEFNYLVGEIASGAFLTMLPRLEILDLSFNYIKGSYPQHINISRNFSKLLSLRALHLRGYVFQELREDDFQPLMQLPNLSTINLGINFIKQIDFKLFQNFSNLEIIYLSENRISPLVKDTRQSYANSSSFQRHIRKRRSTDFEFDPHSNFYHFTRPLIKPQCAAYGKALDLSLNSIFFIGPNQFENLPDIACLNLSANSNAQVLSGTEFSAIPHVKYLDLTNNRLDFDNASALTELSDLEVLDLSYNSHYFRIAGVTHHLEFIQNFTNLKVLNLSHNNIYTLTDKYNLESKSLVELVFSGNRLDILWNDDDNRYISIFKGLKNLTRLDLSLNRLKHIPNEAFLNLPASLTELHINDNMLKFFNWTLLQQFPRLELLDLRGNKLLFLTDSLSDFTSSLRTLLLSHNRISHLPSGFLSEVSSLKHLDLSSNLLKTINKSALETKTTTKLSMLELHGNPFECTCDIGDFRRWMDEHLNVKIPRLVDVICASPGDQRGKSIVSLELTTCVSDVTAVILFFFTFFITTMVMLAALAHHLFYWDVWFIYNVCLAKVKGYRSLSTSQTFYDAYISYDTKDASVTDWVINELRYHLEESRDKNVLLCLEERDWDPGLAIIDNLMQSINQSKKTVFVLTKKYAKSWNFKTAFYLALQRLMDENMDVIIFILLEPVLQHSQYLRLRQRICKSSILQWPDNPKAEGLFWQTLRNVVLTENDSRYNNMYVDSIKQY
Setting [1] is: TLR9 IC50, HEK-Blue cells overexpressing human TLR9, ODN2006 5 nM.
[2] abbreviates: HEK-Blue cells overexpressing human TLR7, gardiquimod 7.5 μM.
[3] abbreviates: TLR8 IC50, HEK-Blue cells overexpressing human TLR8, R848 15.9 μM.
Where [4] appears, read: read-out: TLR9 IC50, HEK-Blue cells overexpressing human TLR9, ODN2006 5 nM.
Where [5] appears, read: read-out: TLR8 IC50, HEK-Blue cells overexpressing human TLR8, R848 15.9 μM.
The mark [6] stands for this setting: read-out: TLR9 IC50, HEK-Blue cells, ODN2006 5 nM.
Where [7] appears, read: HEK-Blue cells, gardiquimod 7.5 μM.
[8] abbreviates: read-out: TLR8 IC50, HEK-Blue cells, R848 15.9 μM.

Read-outs that look alike come from different tables or passages of the source.

Chain of human TLR9 (Q9NR96 26-1032): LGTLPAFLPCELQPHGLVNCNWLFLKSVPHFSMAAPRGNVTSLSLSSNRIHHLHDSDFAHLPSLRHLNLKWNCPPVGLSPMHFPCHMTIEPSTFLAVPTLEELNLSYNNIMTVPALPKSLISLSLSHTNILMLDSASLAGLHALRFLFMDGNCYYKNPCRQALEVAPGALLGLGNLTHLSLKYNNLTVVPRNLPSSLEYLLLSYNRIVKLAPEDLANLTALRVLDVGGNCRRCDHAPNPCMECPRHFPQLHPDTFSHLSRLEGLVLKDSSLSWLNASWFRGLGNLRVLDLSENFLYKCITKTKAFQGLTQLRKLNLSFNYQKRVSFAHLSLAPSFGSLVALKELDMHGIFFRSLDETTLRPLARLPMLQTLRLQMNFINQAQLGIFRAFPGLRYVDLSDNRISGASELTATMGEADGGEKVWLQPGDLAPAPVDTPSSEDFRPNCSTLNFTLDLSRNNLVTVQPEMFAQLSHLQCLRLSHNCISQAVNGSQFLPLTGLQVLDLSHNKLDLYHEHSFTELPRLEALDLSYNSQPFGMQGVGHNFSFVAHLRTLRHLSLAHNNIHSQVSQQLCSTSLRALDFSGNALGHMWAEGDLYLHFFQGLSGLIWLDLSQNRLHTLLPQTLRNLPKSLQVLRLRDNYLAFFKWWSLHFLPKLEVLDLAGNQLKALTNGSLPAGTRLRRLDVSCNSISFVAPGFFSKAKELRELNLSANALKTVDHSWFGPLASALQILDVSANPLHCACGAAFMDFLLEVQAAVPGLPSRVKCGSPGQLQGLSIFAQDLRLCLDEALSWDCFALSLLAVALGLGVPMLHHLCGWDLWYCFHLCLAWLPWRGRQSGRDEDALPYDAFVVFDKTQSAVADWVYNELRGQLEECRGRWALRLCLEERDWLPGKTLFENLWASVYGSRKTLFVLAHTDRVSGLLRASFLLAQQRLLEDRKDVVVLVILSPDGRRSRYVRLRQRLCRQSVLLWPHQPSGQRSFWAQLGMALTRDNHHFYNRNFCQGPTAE

On to `Cc1cc(-c2[nH]c3ccc(C4CCN(CC(=O)N5CC(O)C5)CC4)cc3c2C(C)C)cc(C)n1` [Example 229, 2-(4-(2-(2,6-dimethylpyridin-4-yl)-3-isopropyl-1H-indol-5-yl)piperidin-1-yl)-1-(3-hydroxyazetidin-1-yl)ethan-1-one], for which the figures for the IC50 at human TLR9 (setting [1]), against human TLR7 (setting [2]) and against human TLR8 (setting [3]) were 165 nM, 6.4 nM and 7.1 nM, respectively.
In the case of `Cc1cc(-c2[nH]c3ccc(C4CCN(CC(=O)N(C)C5CCCCC5)CC4)cc3c2C(C)C)cc(C)n1` [Example 278, N-cyclohexyl-2-(4-(2-(2,6-dimethylpyridin-4-yl)-3-isopropyl-1H-indol-5-yl)piperidin-1-yl)-N-methylacetamide], the IC50 (in general, the concentration at which inhibition is half-maximal) on human TLR9 (setting [4]) was determined as 288 nM; against human TLR7 (setting [2]), 6.1 nM; at human TLR8 (setting [5]) it was 28.5 nM.
On the same counts, the results for `CCc1c(-c2ccnc(Cl)c2)[nH]c2ccc(C3CCNCC3)cc12` [Example 62, 2-(2-chloropyridin-4-yl)-3-ethyl-5-(piperidin-4-yl)-1H-indole] are 2100 nM, 22 nM and 19.4 nM.
On the same counts, the results for `Cc1cc(-c2[nH]c3ccc(C4CCN(C(=O)CNCCO)CC4)cc3c2C(C)C)cc(C)n1` [Example 336, 1-(4-(2-(2,6-dimethylpyridin-4-yl)-3-isopropyl-1H-indol-5-yl)piperidin-1-yl)-2-((2-hydroxyethyl)amino)ethan-1-one] are 272 nM, 1.5 nM and 9.7 nM.
`Cc1cc(-c2[nH]c3cc(F)c(C4CCN(C5CCOCC5)CC4)cc3c2C(C)C)cc(C)n1` [Example 831, 2-(2,6-dimethylpyridin-4-yl)-6-fluoro-3-isopropyl-5-(1-(tetrahydro-2H-pyran-4-yl)piperidin-4-yl)-1H-indole]: the IC50 at human TLR9 (setting [6]) came to 567 nM; on human TLR7 (setting [7]), 6.2 nM; at human TLR8 (setting [8]) it was 11.6 nM.
For `Cc1cc(-c2[nH]c3ccc(C4CCN(C(=O)CN5CC[C@H](O)C5)CC4)cc3c2C(C)C)cc(C)n1` [Example 380, (S)-1-(4-(2-(2,6-dimethylpyridin-4-yl)-3-isopropyl-1H-indol-5-yl)piperidin-1-yl)-2-(3-hydroxypyrrolidin-1-yl)ethan-1-one], the IC50 on human TLR9 (setting [4]) was found to be 354 nM; at human TLR7 (setting [2]), 2 nM; at human TLR8 (setting [5]), 10.5 nM.
On the same counts, the results for `Cc1cc(-c2[nH]c3ccc(C4CCN(C5CCNCC5C)CC4)cc3c2C(C)C)ccn1` (stereo not drawn) [Example 709, 3-isopropyl-5-(3′-methyl-[1,4′-bipiperidin]-4-yl)-2-(2-methylpyridin-4-yl)-1H-indole] are 393 nM, 32.4 nM and 12.6 nM.
For `Cc1cc(-c2[nH]c3ccc(C4CCN(Cc5c[nH]c(C)n5)CC4)cc3c2C(C)C)cc(C)n1` [Example 426, 2-(2,6-dimethylpyridin-4-yl)-3-isopropyl-5-(1-((2-methyl-1H-imidazol-4-yl)methyl)piperidin-4-yl)-1H-indole] the same measures were 90 nM, 6.1 nM and 2.6 nM.
For `CCc1c(-c2ccnc(N)c2)[nH]c2ccc(C3CCNCC3)cc12` [Example 69, 4-(3-ethyl-5-(piperidin-4-yl)-1H-indol-2-yl) pyridin-2-amine] the same measures were 114 nM, 277 nM and 181 nM.
As for `Cc1cc(-c2[nH]c3ccc(C4CCN(C(=O)C5CC(=O)N(C)C5)CC4)cc3c2C(C)C)cc(F)n1` (stereo not drawn) [Example 502, 4-(4-(2-(2-fluoro-6-methylpyridin-4-yl)-3-isopropyl-1H-indol-5-yl)piperidine-1-carbonyl)-1-methylpyrrolidin-2-one], the figures for the IC50 at human TLR9 (setting [4]), on human TLR7 (setting [2]) and at human TLR8 (setting [5]) were 24700 nM, 28.4 nM and 156 nM, respectively.
With `Cc1cc(-c2[nH]c3ccc(C4CCN(CC(=O)N5CCC[C@H](O)C5)CC4)cc3c2C(C)C)cc(C)n1` [Example 210, (S)-2-(4-(2-(2,6-dimethylpyridin-4-yl)-3-isopropyl-1H-indol-5-yl)piperidin-1-yl)-1-(3-hydroxypiperidin-1-yl)ethan-1-one], the IC50 against human TLR9 (setting [1]) came to 225 nM; against human TLR7 (setting [2]), 2 nM; on human TLR8 (setting [3]), 6.2 nM.
Consider `Cc1cc(-c2[nH]c3ccc(C4CCN(C5CCCN(C(C)C)C5)CC4)cc3c2C(C)C)ccn1` (stereo not drawn) [Example 707, 3-isopropyl-5-(1′-isopropyl-[1,3′-bipiperidin]-4-yl)-2-(2-methylpyridin-4-yl)-1H-indole], for which the IC50 at human TLR9 (setting [4]) stood at 217 nM; against human TLR7 (setting [2]) it was 7.6 nM; at human TLR8 (setting [5]), 2.8 nM.
For the compound `Cc1cc(-c2[nH]c3ccc(C4CCN(CC5(C)COC5)CC4)cc3c2C(C)C)ccn1` [Example 867, 3-isopropyl-5-(1-((3-methyloxetan-3-yl)methyl)piperidin-4-yl)-2-(2-methylpyridin-4-yl)-1H-indole], the figures for the IC50 at human TLR9 (setting [6]), against human TLR7 (setting [7]) and at human TLR8 (setting [8]) were 794 nM, 16.3 nM and 3.7 nM, respectively.
Take `CC(C)c1c(-c2c(Cl)cncc2Cl)[nH]c2ccc(C3CCNCC3)cc12` [Example 20, 2-(3,5-dichloropyridin-4-yl)-3-isopropyl-5-(piperidin-4-yl)-1H-indole]: the IC50 on human TLR9 (setting [4]) amounted to 7790 nM; against human TLR7 (setting [2]) it was 1660 nM; on human TLR8 (setting [5]), 128 nM.
Consider `CCc1cc(-c2[nH]c3ccc(C4CCNCC4)cc3c2C(C)C)cc(OC)n1` [Example 487, 2-(2-ethyl-6-methoxypyridin-4-yl)-3-isopropyl-5-(piperidin-4-yl)-1H-indole], for which the figures for the IC50 on human TLR9 (setting [4]), against human TLR7 (setting [2]) and on human TLR8 (setting [5]) were 2140 nM, 33.4 nM and 79.1 nM, respectively.
In the case of `CC(=O)N1CCC(c2ccc3[nH]c(-c4ccnc(C)c4)c(C(C)C)c3c2)CC1` [Example 826, 1-(4-(3-isopropyl-2-(2-methylpyridin-4-yl)-1H-indol-5-yl)piperidin-1-yl)ethan-1-one], the IC50 at human TLR9 (setting [6]) worked out at 43400 nM; against human TLR7 (setting [7]) it was 42.6 nM; on human TLR8 (setting [8]), 186 nM.
In the case of `Cc1cc(-c2[nH]c3ccc(C4CCN(C(=O)OCC(C)C)CC4)cc3c2C(C)C)ccn1` [Example 558, isobutyl 4-(3-isopropyl-2-(2-methylpyridin-4-yl)-1H-indol-5-yl)piperidine-1-carboxylate], the concentration for half-maximal inhibition (IC50) at human TLR9 (setting [4]) was 15000 nM; on human TLR7 (setting [2]), 3400 nM; at human TLR8 (setting [5]) it was 1840 nM.
`CCc1cc(-c2[nH]c3ccc(C4CCNCC4)cc3c2C(C)C)c(F)cn1` [Example 482, 2-(2-ethyl-5-fluoropyridin-4-yl)-3-isopropyl-5-(piperidin-4-yl)-1H-indole]: the IC50 on human TLR9 (setting [4]) stood at 3690 nM; at human TLR7 (setting [2]) it was 10.6 nM; at human TLR8 (setting [5]), 19.2 nM.
`Cc1cc(-c2[nH]c3ccc(C4CCN(S(=O)(=O)c5cn(C)c(C)n5)CC4)cc3c2C(C)C)ccn1` [Example 553, 5-(1-((1,2-dimethyl-1H-imidazol-4-yl)sulfonyl)piperidin-4-yl)-3-isopropyl-2-(2-methylpyridin-4-yl)-1H-indole]: the concentration for half-maximal inhibition (IC50) at human TLR9 (setting [4]) was 31600 nM; against human TLR7 (setting [2]), 74.2 nM; at human TLR8 (setting [5]), 84.3 nM.
For `Cc1cc(-c2[nH]c3ccc(C4CCN(C(=O)CNC(CO)CC(C)C)CC4)cc3c2C(C)C)cc(C)n1` (stereo not drawn) [Example 382, 1-(4-(2-(2,6-dimethylpyridin-4-yl)-3-isopropyl-1H-indol-5-yl)piperidin-1-yl)-2-((1-hydroxy-4-methylpentan-2-yl)amino)ethan-1-one] the same measures were 769 nM, 7.6 nM and 44.1 nM.
`Cc1cc(-c2[nH]c3ccc(C4CCN(S(=O)(=O)c5cccnc5)CC4)cc3c2C(C)C)ccn1` [Example 543, 3-isopropyl-2-(2-methylpyridin-4-yl)-5-(1-(pyridin-3-ylsulfonyl)piperidin-4-yl)-1H-indole]: the results for the 50% inhibitory concentration (IC50) on human TLR9 (setting [4]), against human TLR7 (setting [2]) and at human TLR8 (setting [5]) were 9750 nM, 119 nM and 206 nM, respectively.
Turning to `Cc1cc(-c2[nH]c3ccc(C4CCN(Cc5ncco5)CC4)cc3c2C(C)C)c(F)cn1` [Example 700, 2-((4-(2-(5-fluoro-2-methylpyridin-4-yl)-3-isopropyl-1H-indol-5-yl)piperidin-1-yl)methyl)oxazole], the IC50 was over 50000 nM on human TLR9 (setting [4]), 55.8 nM on human TLR7 (setting [2]) and 16 nM on human TLR8 (setting [5]).
For the compound `CNC(=O)CN1CCC(c2ccc3[nH]c(-c4ccnc(C)c4)c(C(C)C)c3c2)CC1` [Example 513], the IC50 on human TLR9 (setting [4]) amounted to 2260 nM; at human TLR7 (setting [2]), 13.5 nM; on human TLR8 (setting [5]), 9.8 nM.
As for `Cc1cc(-c2[nH]c3ccc(C4CCN(Cc5cccnc5)CC4)cc3c2C(C)C)cc(C)n1` [Example 433, 2-(2,6-dimethylpyridin-4-yl)-3-isopropyl-5-(1-(pyridin-3-ylmethyl)piperidin-4-yl)-1H-indole], the IC50 turned out to be 234 nM against human TLR9 (setting [1]), 4.6 nM against human TLR7 (setting [2]) and 2.4 nM against human TLR8 (setting [3]).
For the compound `Cc1cc(-c2[nH]c3ccc(C4CCN(C(=O)CN5C[C@@H](F)C[C@H]5CO)CC4)cc3c2C(C)C)cc(C)n1` [Example 409, 1-(4-(2-(2,6-dimethylpyridin-4-yl)-3-isopropyl-1H-indol-5-yl)piperidin-1-yl)-2-((2S,4S)-4-fluoro-2-(hydroxymethyl)pyrrolidin-1-yl)ethan-1-one], the concentration for half-maximal inhibition (IC50) on human TLR9 (setting [4]) is 2530 nM; against human TLR7 (setting [2]) it was 4.1 nM; at human TLR8 (setting [5]), 67.9 nM.
For `Cc1cc(-c2[nH]c3ccc(C4CCNCC4)cc3c2C(C)C)c(C#N)c(NCC2CC2)n1` [Example 32, 2-((cyclopropylmethyl)amino)-4-(3-isopropyl-5-(piperidin-4-yl)-1H-indol-2-yl)-6-methylnicotinonitrile] the same measures were 3990 nM, 4070 nM and 3680 nM.
